The values below come from patent US5354758A, “Benzomorphans useful as NMDA receptor antagonists” (priority 1992, dated 1994).

One assay concerns NMDA-induced lethality. In words: In vivo protection in the mouse against NMDA-induced lethality. Details: species or system Swiss-Webster mouse. The following applies: ip, 30 minutes before 200 mg/kg NMDA, eight mice per dose, Litchfield and Wilcoxin; for ED50: Mus musculus. As for the experimental part:
According to the method described by Ferkany et al. (1988), the test compounds were administered ip to four male Swiss-Webster mice (26-34 g) each, following 30 minutes later, 200 mg/kg of NMDA was administered to the mice each. […] Those compounds that protected three or more of the mice at any of the doses were evaluated further by determining the ED50 values using three or more doses with the eight mice per dose. The ED50 was estimated by the method of Litchfield and Wilcoxin (1949). Water-soluble compounds were dissolved in distilled water and administered in a volume of 10 ml/kg. Water-insoluble compounds were suspended in an aqueous solution of 0.5% methyl cellulose and administered in a volume of 20 ml/kg.

Assay [1] addresses T1, μ-site of opioid receptor (Rattus norvegicus, UniProt P33535).
T1 construct: Semipurified synaptic membranes were prepared according to the method of Toll et al. (1984); from tissue; host or cells: adult male Sprague-Dawley rat forebrain membranes
Description: In vitro binding, inhibition of [^3 H]DAGO binding to rat forebrain synaptic membranes. Further details: species or system Sprague-Dawley rat. The method, then:
(§1) As described below, the compounds of the invention were tested for their ability to inhibit binding of radiolabeled versions of these known ligands.
Semipurified synaptic membranes were prepared according to the method of Toll et al. (1984). Adult male Sprague-Dawley rats were decapitated, and the forebrains were removed, weighed, and homogenized in 20 volumes of […] Tris-HCl, pH 7.7. The homogenate was centrifuged at 27,000×G for 15 minutes, and the resulting pellet was resuspended in buffer and recentrifuged twice. The washed membranes were resuspended in buffer to obtain a membrane concentration of 7.2 mg brain weight/mL; the final concentration in each assay tube was 12.2 mg/2 mL. […] The reaction was stopped by filtration through GF/B filters using a Brandel Cell Harvester. After washing twice with 5 mL of ice cold buffer, the filters were suspended in 5 mL scintillation fluid, and the radioactivity was counted after standing at room temperature overnight.

In assay [2] the target is T2, σ-site of opioid receptor (Cavia porcellus, UniProt Q60492).
T2 construct: Hartley guinea pigs were decapitated, and the brains were removed and homogenized; from tissue; host or cells: Hartley guinea pig brain homogenate (washed membranes)
In words: In vitro binding, inhibition of [^3 H]PPP binding to guinea pig brain homogenate. The following applies: guinea pig brain homogenate, 0.6 nM [^3 H]PPP, 25° C., 1 hour. Further details: species or system Hartley guinea pig. The method, then: as §1
Hartley guinea pigs were decapitated, and the brains were removed and homogenized in 20 volumes of 50 mM Tris-HCl using a Polytron homogenizer. The homogenate was centrifuged at 27,000×G for 15 minutes, and the pellet was resuspended in 50 mM Tris-HCl. The centrifugation procedure was repeated twice. The pellet was diluted to approximately 8 mg wet tissue/assay. Various concentrations of the test compounds (100 μL) and [^3 H]PPP (100 μL, final concentration 0.6 nM) were incubated with 1.8 mL of the tissue homogenate at 25° C. for 1 hour. Unlabeled PPP (final concentration 10 μM) was added to some tubes to determine nonspecific binding. The reaction was stopped by filtration through GF/B filters using a Brandel Cell Harvester. After washing twice with […] of ice cold Tris-HCl, the filters were suspended in 5 mL of scintillation fluid, and the radioactivity was counted after standing at room temperature overnight.
Table 1 summarizes the results of the in vitro binding studies using these three radioligands at the NMDA receptor site, μ-site and σ-site of opioid receptor, respectively.

Assay [3] concerns the target NMDA receptor site. Description: In vitro binding, inhibition of [^3 H]MK-801 binding to rat forebrain synaptic membranes. Details: species or system Sprague-Dawley rat. As to conditions: 3 nM [^3 H]MK-801, 50 μM glycine and glutamate, 37° C., 2 hours, read-out: Ki [^3 H]MK801. As for the experimental part:
as §1
Semipurified synaptic membranes were prepared according to the method of Bristow et al. (1986) with minor modifications. Sprague-Dawley rats were decapitated and the forebrains were removed, weighed, and homogenized in 20 volumes of 0.32M sucrose. The homogenate was centrifuged at 121×G for 10 min. The resulting supernatant was recentrifuged at 27,000×G for 15 min. The pellet was resuspended in 20 volumes of distilled water and this suspension was centrifuged at 8,000×G for 10 min. Both the supernatant and the buffy coat layer, removed with 2 mL of 5 mM Tris-Cl (pH 7.8), were pooled and centrifuged at 27,000×G for 15 min. The supernatant was removed, the pellet was covered with a small amount of 5 mM Tris-Cl, and the sample was frozen for at least 18 hrs at -20° C. Membranes were then washed four times in 5 mM Tris-Cl and finally resuspended in 25 mL. This preparation was used for the binding assay immediately or frozen for subsequent use.
The incubation was terminated by rapid filtration (Brandel Cell Harvester) over Whatman GF/B filters, which were then washed twice with 5 mL of 5 mM Tris-HCl. Radioactivity trapped on the filters was counted in 5 mL Scintiverse II at 50% efficiency in 7 mL minivials after standing at room temperature overnight.

The test system of assay [4] is NMDA receptor site. The following applies: shown previously; cited from earlier work.
[5] abbreviates: Ki [^3 H]DAGO, 2 nM [^3 H]DAGO, 25° C., 1 hour.

Like-named read-outs stand apart in the source and are kept apart here.

As usually defined, the ED50 is the dose that gives a 50% effect, or the effect in half of the subjects. A higher ED50 goes with weaker potency. The Ki is the equilibrium dissociation constant of an inhibitor or competing ligand from its target.

T1 sequence (P33535 whole entry): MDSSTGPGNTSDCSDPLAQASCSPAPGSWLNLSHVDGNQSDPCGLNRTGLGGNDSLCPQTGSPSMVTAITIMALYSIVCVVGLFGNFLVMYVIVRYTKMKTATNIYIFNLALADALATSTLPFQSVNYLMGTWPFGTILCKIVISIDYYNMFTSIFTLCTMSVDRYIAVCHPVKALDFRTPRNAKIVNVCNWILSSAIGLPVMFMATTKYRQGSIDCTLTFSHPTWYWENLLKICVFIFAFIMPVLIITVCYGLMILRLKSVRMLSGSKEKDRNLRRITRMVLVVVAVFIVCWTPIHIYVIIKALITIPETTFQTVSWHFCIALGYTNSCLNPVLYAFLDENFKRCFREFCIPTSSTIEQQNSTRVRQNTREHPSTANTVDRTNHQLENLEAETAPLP
T2 sequence (Q60492 whole entry): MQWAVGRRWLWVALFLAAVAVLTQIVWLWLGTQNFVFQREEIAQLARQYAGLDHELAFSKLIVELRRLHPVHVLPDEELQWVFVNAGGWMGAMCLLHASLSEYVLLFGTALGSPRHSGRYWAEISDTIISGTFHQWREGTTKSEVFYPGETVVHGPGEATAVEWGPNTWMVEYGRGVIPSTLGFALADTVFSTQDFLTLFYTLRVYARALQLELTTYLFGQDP

Take `CC(C1CO1)N1CC[C@]2(C)c3ccccc3C[C@H]1[C@H]2C` (mixture of isomers) [(+)-BZ-5 (Mixture of Isomer B and C), (1S,5S,9S)-(+)-5,9-Dimethyl-2-(1-methyl-2,3-epoxypropyl)-6,7-benzomorphan]: the ED50 in the assay with NMDA-induced lethality turned out to be 32.5 mg/kg. In addition, the Ki in assay [1] (setting [5]) was 12.4 µM; in assay [2] (read-out: Ki [^3 H]PPP) it was 0.042 µM.
The molecule `C=CC(C)N1CC[C@]2(C)c3ccccc3C[C@H]1[C@H]2C` (single isomer, unassigned; (+)) [(+)-BZ-2] yielded a 50% effective dose (ED50) in the assay on NMDA-induced lethality of 22.1 mg/kg. The Ki in assay [1] (setting [5]) amounted to 9.58 µM; on NMDA receptor site [3] it was 1.32 µM; in assay [2] (read-out: Ki [^3 H]PPP), 0.1 µM.
In the assay on NMDA-induced lethality, `CC(C1CCC1)N1CC[C@]2(C)c3ccccc3C[C@H]1[C@H]2C` (single isomer, unassigned; (+)) [(+)-BZ-3 (Isomer A)] gave a Mouse ED50 of 16.4 mg/kg. Further, the Ki in assay [1] (setting [5]) was 11.8 µM; on NMDA receptor site [3], 0.22 µM; in assay [2] (read-out: Ki [^3 H]PPP), 0.0012 µM.
The matching figures for `CC(C1CCC1)N1CC[C@]2(C)c3ccccc3C[C@H]1[C@H]2C` (single isomer, unassigned; (+)) [(+)-BZ-3 (Isomer B)]: greater than 60 mg/kg, 13.5 µM, 3.61 µM and 0.0081 µM.
For the molecule `C=CC(C1CC1)N1CC[C@]2(C)c3ccccc3C[C@H]1[C@H]2C` (single isomer, unassigned; (+)) [(+)-BZ-4], the ED50 in the assay with NMDA-induced lethality is 24.1 mg/kg. Moreover, the Ki came out at 20.2 µM in assay [1] (setting [5]), 11.5 µM on NMDA receptor site [3] and 0.13 µM in assay [2] (read-out: Ki [^3 H]PPP).
Take `CC(C1CO1)N1CC[C@]2(C)c3ccccc3C[C@H]1[C@H]2C` (single isomer, unassigned; (+)) [(+)-BZ-5 (Isomer A)]: the Ki came to 9.74 µM in assay [1] (setting [5]), 29.2 µM on NMDA receptor site [3] and 0.04 µM in assay [2] (read-out: Ki [^3 H]PPP).
In the case of `CC(C1CO1)N1CC[C@]2(C)c3ccccc3C[C@H]1[C@H]2C` (single isomer, unassigned; (+)) [(+)-BZ-5], the Ki worked out at 5.8 µM in assay [1] (setting [5]), 11.6 µM on NMDA receptor site [3] and 0.011 µM in assay [2] (read-out: Ki [^3 H]PPP).
The molecule `C#CC(C)N1CC[C@]2(C)c3ccccc3C[C@H]1[C@H]2C` (single isomer, unassigned; (+)) [(+)-BZ-6 (Isomer A)] came in with a Mouse ED50 in the assay on NMDA-induced lethality greater than 50 mg/kg. In addition, the inhibition constant (Ki) in assay [1] (setting [5]) was 12.3 µM; at NMDA receptor site [3] it was 16.6 µM; in assay [2] (read-out: Ki [^3 H]PPP) it was 19.2 µM.
For `C#CC(C)N1CC[C@]2(C)c3ccccc3C[C@H]1[C@H]2C` (single isomer, unassigned; (+)) [(+)-BZ-6 (Isomer B)] the same measures were 18.8 mg/kg, 9 µM, 2.55 µM and 1.1 µM.
The molecule `CC(C1CC1)N1CC[C@]2(C)c3cc(F)ccc3C[C@H]1[C@H]2C` (single isomer, unassigned; (+)) [(+)-BZ-14 (Isomer A)] gave a Mouse ED50 with NMDA-induced lethality of 6.1 mg/kg. For the same molecule, the Ki in assay [1] (setting [5]) stood at 0.72 µM; on NMDA receptor site [3], 0.85 µM; in assay [2] (read-out: Ki [^3 H]PPP) it was 0.014 µM.
Turning to `CC(C1CC1)N1CC[C@]2(C)c3cc(F)ccc3C[C@H]1[C@H]2C` (single isomer, unassigned; (+)) [(+)-BZ-14 (Isomer B)], in the assay with NMDA-induced lethality, the Mouse ED50 turned out to be 13 mg/kg. In addition, the inhibition constant Ki came out at 5.01 µM in assay [1] (read-out: Ki [^3 H]DAGO, 2 nM [^3 H]DAGO, 25° C., 1 hour); 3.53 µM at NMDA receptor site [3]; 0.062 µM in assay [2] (read-out: Ki [^3 H]PPP).
In the assay on NMDA-induced lethality, `CC(C1CC1)N1CC[C@]2(C)c3ccccc3C[C@H]1[C@H]2C` (single isomer, unassigned; (+)) [(+)-IIId-7 (Isomer A)] yielded a Mouse ED50 of 6.8 mg/kg. In addition, the Ki in assay [1] (setting [5]) was 3.05 µM; at NMDA receptor site [3], 0.75 µM; in assay [2] (read-out: Ki [^3 H]PPP), 0.02 µM.
For `CC(C1CC1)N1CC[C@]2(C)c3ccccc3C[C@H]1[C@H]2C` (single isomer, unassigned; (+)) [(+)-IIId-7 (Isomer B)] the same measures were 13.7 mg/kg, 6.58 µM, 1.99 µM and 0.071 µM.
In turn, `C[C@@H]1[C@@H]2Cc3ccccc3[C@@]1(C)CCN2C(C1CC1)C1CC1` [(+)-BZ-1, (1S,5S,9S)-(+)-2-Dicyclopropylmethyl-5,9-dimethyl-6,7-benzomorphan] showed a median effective dose (ED50) with NMDA-induced lethality of 33.1 mg/kg. Besides, the Ki in assay [1] (setting [5]) worked out at 11.5 µM; on NMDA receptor site [3], 14 µM; in assay [2] (read-out: Ki [^3 H]PPP), 0.16 µM.
For `CC(C)N1CC[C@]2(C)c3cc(F)ccc3C[C@H]1[C@H]2C` [(+)-BZ-13, (1S,5S,9S)-(+)-2'-Fluoro-2-isopropyl-5,9-dimethyl-6,7-benzomorphan] the same measures were 9 mg/kg, 20.2 µM, 4.15 µM and 0.26 µM.
For `C[C@@H]1[C@@H]2Cc3ccccc3[C@@]1(C)CCN2C(C)(C)C` [(+)-BZ-15A, (1S,5S,9S)-(+)-2-Tert-butyl-5,9-dimethyl-6,7-benzomorphan] the same measures were 10.7 mg/kg, 7.29 µM, 2.59 µM and 0.98 µM.
The matching figures for `C[C@@H]1[C@@H]2Cc3ccccc3[C@@]1(C)CCN2O` [(+)-BZ-17A, (1S,5S,9S)-(+)-2-hydroxy-5,9-dimethyl-6,7-benzomorphan]: 21.6 mg/kg, 21.9 µM, 43 µM and 25.9 µM.
In turn, `C[C@@H]1[C@@H]2Cc3ccccc3[C@@]1(C)CCN2N(C)C` [(+)-BZ-18, (1S,5S,9S)-(+)-5,9-dimethyl-2-dimethylamino-6,7-benzomorphan] yielded an ED50 with NMDA-induced lethality of 14.4 mg/kg. The values for the Ki (at NMDA receptor site [3]; in assay [2] (read-out: Ki [^3 H]PPP)) were 4.54 µM and 0.81 µM, respectively.
The molecule `CC(C)N1CC[C@]2(C)c3cc(Cl)ccc3C[C@H]1[C@H]2C` [(+)-BZ-26, (1S,5S,9S)-(+)-2'-Chloro-2-isopropyl-5,9-dimethyl-6,7-benzomorphan] came in with a median effective dose (ED50) with NMDA-induced lethality of 12.2 mg/kg. Besides, the Ki in assay [1] (setting [5]) came out at 11.8 µM; at NMDA receptor site [3] it was 12.8 µM; in assay [2] (read-out: Ki [^3 H]PPP) it was 0.074 µM.
The matching figures for `CC(C)N1CC[C@]2(C)c3ccccc3C[C@H]1[C@H]2C` [(+)-IIId-6, (1S,5S,9S)-(+)-2-Isopropyl-5,9-dimethyl-6,7-benzomorphan]: 17.3 mg/kg, 18.9 µM, 3.51 µM and 0.56 µM.
On to `COc1ccc2c(c1)[C@]13CCCC[C@@H]1[C@H](C2)N(C)CC3` [Dextromethorphan, reference compound], for which it took a dose of 39 mg/kg to reach the 50% effect level with NMDA-induced lethality (ED50). In addition, the Ki in assay [1] (setting [5]) was found to be 1.74 µM; in assay [2] (Ki [^3 H]PPP) it was 0.15 µM.
In the case of `CN1CC[C@@]23CCCC[C@@H]2[C@@H]1Cc1ccc(O)cc13` [Dextrorphan, reference compound], the Mouse ED50 with NMDA-induced lethality is 34.6 mg/kg. The affinity in assay [1] (setting [5]), expressed as Ki, was 2.2 µM.
As for `C[C@]12N[C@H](Cc3ccccc31)c1ccccc12` [MK-801], in the assay with NMDA receptor site [4], the “high-affinity ligand at the NMDA receptor site” value is reported as “high-affinity”.
